Like-named read-outs stand apart in the source and are kept apart here.

In assay [1] the target is isolated recombinant JAK1 kinase domain (Homo sapiens (Human), UniProt P23458). Briefly: JAK1 enzyme assay (Caliper LabChip, Ki). The format is biochemical.
For assay [2], the target named is isolated recombinant JAK2 kinase domain (Homo sapiens (Human), UniProt O60674). Description: JAK2 enzyme assay (Caliper LabChip, Ki). The format is biochemical.
[3] abbreviates: isolated recombinant JAK1 kinase domain, 1.5 nM enzyme, ATP 25 μM.
The mark [4] stands for this setting: isolated recombinant JAK2 kinase domain, 0.2 nM enzyme, ATP 25 μM.

Sequence of isolated recombinant JAK1 kinase domain (P23458 875-1153): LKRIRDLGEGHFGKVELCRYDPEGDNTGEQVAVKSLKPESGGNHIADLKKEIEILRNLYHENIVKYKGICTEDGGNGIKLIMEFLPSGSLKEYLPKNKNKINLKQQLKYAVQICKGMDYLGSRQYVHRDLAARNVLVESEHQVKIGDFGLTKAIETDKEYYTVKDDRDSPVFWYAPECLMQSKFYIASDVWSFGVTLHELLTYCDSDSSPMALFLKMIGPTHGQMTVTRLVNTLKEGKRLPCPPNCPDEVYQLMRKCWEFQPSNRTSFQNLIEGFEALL
Sequence of isolated recombinant JAK2 kinase domain (O60674 849-1124): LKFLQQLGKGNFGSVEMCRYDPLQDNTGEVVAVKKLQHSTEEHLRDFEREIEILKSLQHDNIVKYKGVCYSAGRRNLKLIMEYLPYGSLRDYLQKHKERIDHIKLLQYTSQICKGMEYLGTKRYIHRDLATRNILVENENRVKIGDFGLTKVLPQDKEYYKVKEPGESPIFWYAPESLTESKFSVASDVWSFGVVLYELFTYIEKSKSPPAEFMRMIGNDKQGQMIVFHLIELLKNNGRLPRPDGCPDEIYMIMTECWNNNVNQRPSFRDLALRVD

By Ki is commonly meant a measure of affinity in units of concentration, obtained from inhibition or displacement. Regarding `CN1CCN(C(=O)Cn2cc(Nc3nc4c(N5CC6CCC(C5)N6C(=O)[C@H]5C[C@H](C(F)(F)F)C5)cccn4n3)cn2)CC1` [Example 6, formic acid; 1-(4-methylpiperazin-1-yl)-2-[4-[[8-[8-[3-(trifluoromethyl)cyclobutanecarbonyl]-3,8-diazabicyclo[3.2.1]octan-3-yl]-[1,2,4]triazolo[1,5-a]pyridin-2-yl]amino]pyrazol-1-yl]ethanone], the Ki in assay [1] (setting [3]) is 0.7 nM; in assay [2] (setting [4]), 0.6 nM.
`CN1CCN(C(=O)Cn2cc(Nc3nc4c(C5=CC6CCC(C5)N6C(=O)OCC(F)(F)F)cccn4n3)cn2)CC1` (stereo not shown) [Example 7, 2,2,2-trifluoroethyl 3-[2-[[1-[2-(4-methylpiperazin-1-yl)-2-oxo-ethyl]pyrazol-4-yl]amino]-[1,2,4]triazolo[1,5-a]pyridin-8-yl]-8-azabicyclo[3.2.1]oct-3-ene-8-carboxylate]: the Ki in assay [1] and in assay [2] was 0.7 nM in each case.
On to `CN1CCN(C(=O)Cn2cc(Nc3nc4c(N5CC6CCC(C5)N6C(=O)CC5CC(F)(F)C5)cccn4n3)cn2)CC1` [Example 8, 2-(3,3-difluorocyclobutyl)-1-[3-[2-[[1-[2-(4-methylpiperazin-1-yl)-2-oxo-ethyl]pyrazol-4-yl]amino]-[1,2,4]triazolo[1,5-a]pyridin-8-yl]-3,8-diazabicyclo[3.2.1]octan-8-yl]ethanone], for which the figures for the Ki in assay [1] (setting [3]) and in assay [2] (setting [4]) were 0.6 nM and 0.7 nM, respectively.
For `CN1CCN(C(=O)Cn2cc(Nc3nc4c(N5CC6CCC(C5)N6C(=O)CC5CSCCS5)cccn4n3)cn2)CC1` (stereo not shown) [Example 9, 2-(1,4-dithian-2-yl)-1-[3-[2-[[1-[2-(4-methylpiperazin-1-yl)-2-oxo-ethyl]pyrazol-4-yl]amino]-[1,2,4]triazolo[1,5-a]pyridin-8-yl]-3,8-diazabicyclo[3.2.1]octan-8-yl]ethanone], the Ki amounted to 0.6 nM in assay [1] (setting [3]) and 0.9 nM in assay [2] (setting [4]).
Turning to `O=C(Cn1cc(Nc2nc3c(N4CC5CCC(C4)N5C(=O)CCC(F)(F)F)cccn3n2)cn1)N1CCN(C2CCOCC2)CC1` [Example 10, 4,4,4-trifluoro-1-[3-[2-[[1-[2-oxo-2-(4-tetrahydropyran-4-ylpiperazin-1-yl)ethyl]pyrazol-4-yl]amino]-[1,2,4]triazolo[1,5-a]pyridin-8-yl]-3,8-diazabicyclo[3.2.1]octan-8-yl]butan-1-one], the figures for the Ki in assay [1] (setting [3]) and in assay [2] (setting [4]) were 0.7 nM and 1.2 nM, respectively.
For `CN(C1CCN(C(=O)Cn2cc(Nc3nc4c(N5CC6CCC(C5)N6C(=O)CCC(F)(F)F)cccn4n3)cn2)CC1)C1COC1` [Example 11, 4,4,4-trifluoro-1-[3-[2-[[1-[2-[4-[methyl(oxetan-3-yl)amino]-1-piperidyl]-2-oxo-ethyl]pyrazol-4-yl]amino]-[1,2,4]triazolo[1,5-a]pyridin-8-yl]-3,8-diazabicyclo[3.2.1]octan-8-yl]butan-1-one], the Ki was 0.7 nM in assay [1] (setting [3]) and 1.4 nM in assay [2] (setting [4]).
For the compound `CN1CCN(C(=O)Cn2cc(Nc3nc4c(N5CC6CCC(C5)N6C(=O)CC(F)(F)F)cccn4n3)cn2)CC1` [Example 12, 3,3,3-trifluoro-1-[3-[2-[[1-[2-(4-methylpiperazin-1-yl)-2-oxo-ethyl]pyrazol-4-yl]amino]-[1,2,4]triazolo[1,5-a]pyridin-8-yl]-3,8-diazabicyclo[3.2.1]octan-8-yl]propan-1-one], the Ki is 0.7 nM in assay [1] (setting [3]) and 1.7 nM in assay [2] (setting [4]).
Regarding `CN1CCN(C(=O)Cn2cc(Nc3nc4c(N5CC6CCC(C5)N6C(=O)C5CC5C(F)(F)F)cccn4n3)cn2)CC1` (stereo not shown) [Example 14, 1-(4-methylpiperazin-1-yl)-2-[4-[[8-[8-[2-(trifluoromethyl)cyclopropanecarbonyl]-3,8-diazabicyclo[3.2.1]octan-3-yl]-[1,2,4]triazolo[1,5-a]pyridin-2-yl]amino]pyrazol-1-yl]ethanone], the inhibition constant (Ki) in assay [1] (setting [3]) worked out at 1 nM; in assay [2] (setting [4]), 1.1 nM.

For the origin of these results see patent US10189836B2, “Therapeutic compounds, compositions and methods of use thereof” (Genentech, Inc., priority 2015, dated 2019).
